Source: patent US11180484B2, “Pyrazole derivatives as plasma kallikrein inhibitors” (KALVISTA PHARMACEUTICALS LIMITED, priority 2016, dated 2021)
Values after ≈ are worked out from the molar mass of the structure shown. Values joined by “and” are separate entries in the source; they are usually repeats but may differ in a detail not shown here. Identical values can stand only once. Like-named read-outs stand apart in the source and are kept apart here.

Columns and labels:
[1] = Intrinsic clearance in rat liver microsomes; assay type: in vitro ADME; conditions: rat liver microsomes 0.5 mg/mL, 5 μM test compound, 37° C.; read-out: rat liver microsome (Clint μL/min/mg protein)
Protocol: (§1) Rat or human liver microsomes (0.5 mg/mL; Corning) were incubated with 5 μM test compound at 37° C. on a shaking platform (150 rpm). Samples were taken at 0, 6, 12, 18, 24 and 60 min and test compound concentrations were determined by LCMS against a calibration curve.

plasmin = plasmin (Homo sapiens (Human), UniProt P00747); assay: Determination of enzyme selectivity: plasmin; assay type: biochemical; conditions: substrate at Km concentration
Protocol: (§3) Human serine protease enzymes plasmin, thrombin and trypsin were assayed for enzymatic activity using an appropriate fluorogenic substrate. Protease activity was measured by monitoring the accumulation of liberated fluorescence from the substrate over 5 minutes. The linear rate of fluorescence increase per minute was expressed as percentage (%) activity. The Km for the cleavage of each substrate was determined by standard transformation of the Michaelis-Menten equation.

[2] = Plasma protein binding (PPB), rapid equilibrium dialysis, human plasma; assay type: in vitro ADME; conditions: 5 μM test compound, dialysis 5 hrs at 37° C.
trypsin = assay: Determination of enzyme selectivity: trypsin; assay type: biochemical, human; conditions: substrate at Km concentration
Protocol: as §3

[3] = Intrinsic clearance in human liver microsomes; assay type: in vitro ADME; conditions: human liver microsomes 0.5 mg/mL, 5 μM test compound, 37° C.; read-out: Human liver microsome (Clint μL/min/mg protein)
Protocol: as §1

Human KLK1 = Human KLK1 (Homo sapiens (Human), UniProt P06870); assay: Determination of the IC50 for KLK1; assay type: biochemical; conditions: 25° C., substrate H-DVal-Leu-Arg-AFC
Protocol: (§2) Human KLK1 (Callbiochem) was incubated at 25° C. with the fluorogenic substrate H-DVal-Leu-Arg-AFC and various concentrations of the test compound. Residual enzyme activity (initial rate of reaction) was determined by measuring the change in […] at 410 nm and the IC50 value for the test compound was determined.

[4] = Pharmacokinetics following a single oral dose in male Sprague-Dawley rats; assay type: in vivo; conditions: rat, single po dose (nominal 10 mg/kg; actual dose per row in column Dose po), 10% DMSO/10% cremophor/80% SWFI, plasma
Protocol: Pharmacokinetic studies of the compounds in Table 13 were performed to assess the pharmacokinetics following a single oral dose in male Sprague-Dawley rats. Two rats were given a single po dose of 5 mL/kg of a nominal 2 mg/mL (10 mg/kg) composition of test compound in vehicle. Following dosing, blood samples were collected over a period of 24 hours. Sample times were 5, 15 and 30 minutes then 1, 2, 4, 6, 8 and 12 hours. Following collection, blood samples were centrifuged and the plasma fraction analysed for concentration of test compound by LCMS.

[5] = Solubility in water and 0.1N HCl (aq); assay type: physicochemical; conditions: thermodynamic from solid, incubated at 1 mg/mL, 37° C.
Protocol: Solubility was determined in water and 0.1N HCl (aq). Test compounds were incubated at 1 mg/mL for 24 hrs at 37° C. on a shaking platform (500 rpm). Samples were taken at 1, 4 and 24 hrs and centrifuged at 15,000 g for 10 min. Test compound concentration in the supernatant was determined by LCMS against a standard curve.

[6] = Predicted plasma clearance (Clp), well-stirred model, rat; assay type: in vitro ADME; conditions: percentage of hepatic blood flow
Human Factor XIIa = Human Factor XIIa (Homo sapiens (Human), UniProt P00748); assay: Factor XIIa inhibitory activity in vitro; assay type: biochemical; conditions: 25° C., substrate H-DPro-Phe-Arg-AFC; read-out: IC50 (human FXIIa)
Protocol: as §2, with “Factor XIIa (Enzyme Research Laboratories)” for “KLK1 (Callbiochem)”, “H-DPro-Phe-Arg-AFC” for “H-DVal-Leu-Arg-AFC”

thrombin = thrombin (Homo sapiens (Human), UniProt P00734); assay: Determination of enzyme selectivity: thrombin; assay type: biochemical; conditions: substrate at Km concentration
Protocol: as §3

Human plasma kallikrein = Human plasma kallikrein (Homo sapiens (Human), UniProt P03952); assay: Determination of the Ki for plasma kallikrein (mixed-model inhibition); assay type: biochemical; conditions: for Ki: human plasma kallikrein, mixed-model inhibition equation
[7] = Plasma protein binding (PPB), rapid equilibrium dialysis, rat plasma; assay type: in vitro ADME; conditions: 5 μM test compound, dialysis 5 hrs at 37° C.
[8] = simulated gastric fluid, 0.1N HCl (aq), read-out: Solubility 0.1N HCl (aq)
[9] = water, read-out: Solubility Water

Human plasma kallikrein, sequence (P03952 391-638): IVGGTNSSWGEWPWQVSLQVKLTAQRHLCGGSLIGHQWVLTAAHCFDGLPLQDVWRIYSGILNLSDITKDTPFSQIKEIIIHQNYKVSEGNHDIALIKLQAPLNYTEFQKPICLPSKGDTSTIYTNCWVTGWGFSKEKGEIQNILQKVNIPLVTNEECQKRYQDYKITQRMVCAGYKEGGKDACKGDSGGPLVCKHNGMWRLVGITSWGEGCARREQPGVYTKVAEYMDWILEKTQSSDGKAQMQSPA
Human plasma kallikrein, sequence (P03952 20-390): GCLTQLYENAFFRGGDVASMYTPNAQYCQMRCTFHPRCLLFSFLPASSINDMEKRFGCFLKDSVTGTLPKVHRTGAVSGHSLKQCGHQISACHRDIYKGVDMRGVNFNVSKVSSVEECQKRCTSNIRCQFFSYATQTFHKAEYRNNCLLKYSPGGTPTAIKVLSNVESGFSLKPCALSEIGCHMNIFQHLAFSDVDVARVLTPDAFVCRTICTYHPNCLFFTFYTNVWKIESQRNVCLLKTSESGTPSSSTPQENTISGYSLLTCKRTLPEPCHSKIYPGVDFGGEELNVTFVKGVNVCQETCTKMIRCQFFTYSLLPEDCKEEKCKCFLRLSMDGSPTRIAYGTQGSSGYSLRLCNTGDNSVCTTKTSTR
plasmin, sequence (P00747 581-810): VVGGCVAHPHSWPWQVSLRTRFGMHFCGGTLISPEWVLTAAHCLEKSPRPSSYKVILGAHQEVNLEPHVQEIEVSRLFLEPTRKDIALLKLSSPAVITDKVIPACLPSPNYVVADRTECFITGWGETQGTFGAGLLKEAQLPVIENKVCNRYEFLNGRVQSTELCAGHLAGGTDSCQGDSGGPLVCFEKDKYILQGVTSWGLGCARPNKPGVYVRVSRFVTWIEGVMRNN
plasmin, sequence (P00747 97-580): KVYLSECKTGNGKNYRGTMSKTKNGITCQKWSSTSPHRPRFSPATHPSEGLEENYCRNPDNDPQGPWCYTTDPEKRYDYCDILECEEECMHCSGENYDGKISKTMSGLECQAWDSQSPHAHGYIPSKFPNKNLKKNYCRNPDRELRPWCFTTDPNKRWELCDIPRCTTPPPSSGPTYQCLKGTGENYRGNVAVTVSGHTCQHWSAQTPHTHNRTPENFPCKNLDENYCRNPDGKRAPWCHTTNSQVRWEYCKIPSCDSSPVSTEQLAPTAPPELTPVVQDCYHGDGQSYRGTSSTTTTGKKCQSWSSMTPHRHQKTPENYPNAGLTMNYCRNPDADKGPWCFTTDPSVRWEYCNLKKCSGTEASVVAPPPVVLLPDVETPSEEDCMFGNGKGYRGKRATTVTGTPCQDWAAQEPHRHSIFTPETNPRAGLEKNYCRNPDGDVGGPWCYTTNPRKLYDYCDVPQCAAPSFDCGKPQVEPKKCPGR
Human KLK1, sequence (P06870 25-262): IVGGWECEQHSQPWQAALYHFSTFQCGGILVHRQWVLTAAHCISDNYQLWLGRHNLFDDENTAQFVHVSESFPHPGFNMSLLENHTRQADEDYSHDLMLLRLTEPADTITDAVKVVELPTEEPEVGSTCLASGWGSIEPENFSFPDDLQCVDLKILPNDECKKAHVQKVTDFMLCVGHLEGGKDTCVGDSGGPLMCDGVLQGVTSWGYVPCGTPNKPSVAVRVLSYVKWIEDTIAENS
Human Factor XIIa, sequence (P00748 373-615): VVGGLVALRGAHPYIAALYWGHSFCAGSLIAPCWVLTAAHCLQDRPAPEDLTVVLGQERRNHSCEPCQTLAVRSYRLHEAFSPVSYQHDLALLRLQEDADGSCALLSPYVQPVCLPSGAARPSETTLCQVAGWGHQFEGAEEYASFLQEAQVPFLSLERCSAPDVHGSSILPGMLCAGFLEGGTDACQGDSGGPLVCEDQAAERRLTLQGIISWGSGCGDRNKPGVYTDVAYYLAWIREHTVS

microsomal CLint at 5 μM [1] [µL/min/mg] | IC50 (plasmin) [µM] | fraction unbound at 5 h, 5 μM [2] | IC50 (trypsin) [µM] | microsomal CLint at 5 μM [3] [µL/min/mg] | IC50 (Human KLK1) [µM] | Cmax [4] [ng/mL] | Tmax [4] [min] | solubility [5, 8] [µg/mL] | solubility [5, 9] [µg/mL] | Predicted in vivo rat Clp (% LBF) [6] [% LBF] | IC50 (Human Factor XIIa) [µM] | IC50 (thrombin) [µM] | Ki (Human plasma kallikrein) | Alpha (Human plasma kallikrein; parameter of the mixed-model equation indicating mechanism of inhibition) | fraction unbound at 5 h, 5 μM [7] | Structure (SMILES)
19 | 31.2 | 0.22 | > 40 | 29 | > 4 | 187 | 30 | 19 (≈ 34 µM) | 7 (≈ 12.5 µM) | 5 | > 4 | 19.3 | 0.00026 µM | 1.7 | 0.11 | COCc1nn(Cc2ccc(Cn3ccccc3=O)cc2)cc1C(=O)NCc1c(-n2cnnn2)ccc(OC)c1F [Example 39, N-{[2-Fluoro-3-methoxy-6-(1,2,3,4-tetrazol-1-yl)phenyl]methyl}-3-(methoxymethyl)-1-({4-[(2-oxopyridin-1-yl)methyl]phenyl}methyl)pyrazole-4-carboxamide]
23 | 12 | 0.09 | > 40 | 4 | > 40 | 807 | 45 | 924 (≈ 1770 µM) | 93 (≈ 178 µM) | 3 | > 40 | 7.31 | 0.00038 µM and 0.00023 µM |  | 0.05 | COCc1nn(Cc2cnc(N3CCCC3)nc2)cc1C(=O)NCc1c(-n2cnnn2)ccc(OC)c1F [Example 79, N-{[2-Fluoro-3-methoxy-6-(1,2,3,4-tetrazol-1-yl)phenyl]methyl}-3-(methoxymethyl)-1-{[2-(pyrrolidin-1-yl)pyrimidin-5-yl]methyl}pyrazole-4-carboxamide]
